# Measured values as given in US20260250320A1, “LIPIDATED PEPTIDE INHIBITORS OF INTERLEUKIN-23 RECEPTOR” (Janssen Pharmaceutica NV, priority 2023, published 2026).
# *1 amine or outer side, *2 acyl side, *3 side chain or, on linkers, in order; H or OH if unused. Where a SMILES comes first, the peptide text is derived from it. Bridges are numbered along the chain shown (N, C = ends). Side-chain parts run from the residue outwards. [ ]: non-standard residue; d: D form. The star is where a group is joined. ξ: configuration not given here. Me3N+CH2CH2(OCH2CH2)4CO = C[N+](C)(C)CCOCCOCCOCCOCCC(=O)*; PEG12 = NCCOCCOCCOCCOCCOCCOCCOCCOCCOCCOCCOCCOCCC(=O)O; Trp(7-Me) = Cc1cccc2c(C[C@H](N)C(=O)O)c[nH]c12; Abu(4-yl) = O=C([C@H](CC[*:3])N[*:1])[*:2]; C18 diacid = O=C(O)CCCCCCCCCCCCCCCCC(=O)*; X6 = CN(CC[C@H](N[*:1])C(=O)[*:2])[*:3]; γGlu = O=C(O)[C@H](CCC(=O)[*:2])N[*:1]; 2Nal = N[C@@H](Cc1ccc2ccccc2c1)C(=O)O; AEF = NCCOc1ccc(C[C@H](N)C(=O)O)cc1; X2 = C[N+](C)(C)C[C@@H](CC(=O)O)N*; 3Pal = N[C@@H](Cc1cccnc1)C(=O)O; aThr = C[C@H](O)[C@H](N)C(=O)O; NMeK = CN[C@@H](CCCCN)C(=O)O; PEG4 = NCCOCCOCCOCCOCCC(=O)O; Pen = CC(C)(S)[C@H](N)C(=O)O; Suc = O=C(CCC(=O)[*:2])[*:1]; Lauroyl = CCCCCCCCCCCC(=O)*; αMeC = C[C@](N)(CS)C(=O)O; ξR = N=C(N)NCCCC(N)C(=O)O; Thp = NC1(C(=O)O)CCOCC1; AEEA = NCCOCCOCC(=O)O; ClAc = O=C(CCl)*; Sar = CNCC(=O)O
# Legend:
# IL-23R = biological target: T1, IL-23R (Homo sapiens, UniProt Q5VWK5); assay: IL23R Reporter Assay; type: cell-based; details: HEK293 cells containing IL-23R, IL-12Rβ1 and STAT-inducible firefly luciferase reporter; 10 ng/mL IL-23 (EC90); 5 h
# T1 construct: HEK293 cells containing IL-23R, IL-12Rβ1 and a firefly luciferase reporter gene driven by a STAT-inducible promoter (Promega); host or cells: HEK293
# T1 sequence (Q5VWK5 24-629): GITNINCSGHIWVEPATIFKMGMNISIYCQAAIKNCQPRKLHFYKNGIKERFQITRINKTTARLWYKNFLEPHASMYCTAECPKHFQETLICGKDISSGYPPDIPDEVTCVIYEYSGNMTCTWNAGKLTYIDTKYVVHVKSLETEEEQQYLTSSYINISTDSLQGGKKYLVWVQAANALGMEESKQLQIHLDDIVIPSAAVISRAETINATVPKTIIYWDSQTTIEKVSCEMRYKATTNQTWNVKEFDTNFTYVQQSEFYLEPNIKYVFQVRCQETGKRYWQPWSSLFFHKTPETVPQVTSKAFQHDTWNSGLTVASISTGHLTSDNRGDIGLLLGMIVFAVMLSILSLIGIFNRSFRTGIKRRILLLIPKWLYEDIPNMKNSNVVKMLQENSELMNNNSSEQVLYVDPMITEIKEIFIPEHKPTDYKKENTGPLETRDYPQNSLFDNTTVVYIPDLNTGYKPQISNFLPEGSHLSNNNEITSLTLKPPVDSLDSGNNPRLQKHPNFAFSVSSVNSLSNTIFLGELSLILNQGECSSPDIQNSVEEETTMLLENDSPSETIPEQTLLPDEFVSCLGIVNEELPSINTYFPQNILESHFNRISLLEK
# Description: Compounds were serially diluted in 100% (v/v) DMSO) and plated using an Echo acoustic dispenser (Labcyte) into 1536-well non-treated black assay plates (Corning #9146). 3 μL of HEK293 cells containing IL-23R, IL-12Rβ1 and a firefly luciferase reporter gene driven by a STAT-inducible promoter (Promega) were added to the plates (4000 cells/well), followed by 3 μL of 10 ng/mL IL-23 (equivalent to EC90 concentration). After 5 h at 37° C., 5% CO2, 95% relative humidity, cells were placed at 20° C. and treated with BioGlo reagent (Promega) according to the Manufacturer's instructions. Luminescence was measured on a Pherastar FSX (BMG LabTech). Data were normalized to IL-23 treatment (0% inhibition) and 30 μM of control inhibitor (100% inhibition), and IC50 values were determined using a 4-parameter Hill equation.
# [1] = system: IL-23-stimulated phosphorylated STAT3 in peripheral blood mononuclear cells (PBMCs); assay: PBMC pSTAT3 Assay; type: cell-based; details: PBMCs from healthy donors; 30 min preincubation with peptide; IL-23 5 ng/mL for 30 min; phospho-STAT3 by MSD
# Description: Cryopreserved peripheral blood mononuclear cells (PBMCs) from healthy donors were thawed and washed twice in ImmunoCult-XF T cell expansion medium (XF-TCEM) supplemented with CTL anti-aggregate wash. The cells were counted, resuspended at 2-6×10^5 cells per mL XF-TCEM supplemented with penicillin/streptomycin and 100 ng/mL […] (BioLegend, 579404), and cultured in tissue culture flasks coated with anti-CD3 (eBioscience, 16-0037-85 or BD Pharmingen, 555329) at 37° C. in 5% CO2. On day 4 of culture, PBMCs were collected, washed twice in RPMI-1640 supplemented with 0.1% BSA (RPMI-BSA), and incubated in RPMI-BSA in upright tissue culture flasks for ~4 hours at 37° C. in 5% CO2. Following this 'starvation,' a total of 6×10^4 cells in 30 μL RPMI-BSA was transferred into each well of a 384-well plate pre-spotted with peptide or DMSO. The cells were incubated for 30 minutes prior to the addition of […] at a final concentration of 5 ng/mL. The cells were stimulated with cytokine for 30 minutes at 37° C. in 5% CO2, transferred onto ice for 10 minutes, and lysed. Cell lysates were stored at -80° C. until phosphorylated STAT3 was measured using the phospho-STAT panel kit (Meso Scale Discovery, […]). Results are provided below. • A: IC50<0.5 nM; • B: 0.5 nM≤IC50<5 nM; • C: 5 nM≤IC50; • ND: Not determined
IC50 (IL-23R),Structure (SMILES),IC50 [1]
50 to 500 nM,"CC(=O)NCCCC[C@H](NC(=O)C1(NC(=O)[C@H](Cc2ccc3ccccc3c2)NC(=O)[C@H](Cc2ccc(OCCN)cc2)NC(=O)[C@@H](NC(=O)[C@@H](N)CCCCNC(C)=O)C(C)(C)SSC(C)(C)[C@H](NC(C)=O)C(=O)N[C@@H](CC(N)=O)C(=O)N[C@H](C(=O)N[C@H](Cc2c[nH]c3c(C)cccc23)C(C)=O)[C@@H](C)O)CCOCC1)C(=O)N[C@@H](CC(N)=O)C(=O)N[C@@H](Cc1cccnc1)C(=O)N(C)CC(=O)N[C@@H](CCCCNC(=O)COCCOCCN(C)C(=O)COCCOCCN(C)C(=O)CC[C@@H](C(=O)O)N(C)C(=O)CCCCCCCCCCCCCCCCCc1nnn[nH]1)C(N)=O [compound 2, MeCO-Pen(3)-N-T-7MeW-K(Ac)-Pen(3)-AEF-2Nal-THP-K(Ac)-N-3Pya-Sar-K(PEG2NMePEG2NMegENMeC18Tetrazole)-CONH2]",< 0.5 nM
< 50 nM,"CC(=O)NCCCC[C@@H]1NC(=O)[C@H](Cc2c[nH]c3c(C)cccc23)NC(=O)[C@H]([C@@H](C)O)NC(=O)[C@H](CC(N)=O)NC(=O)[C@@H](NC(C)=O)C(C)(C)SSC(C)(C)[C@@H](C(=O)N[C@@H](Cc2ccc(OCCN)cc2)C(=O)N[C@@H](Cc2ccc3ccccc3c2)C(=O)NC2(C(=O)N[C@@H](CCC(=O)O)C(=O)N[C@@H](CC(N)=O)C(=O)N[C@@H](Cc3cccnc3)C(=O)N(C)CC(=O)N[C@@H](CCCCNC(=O)COCCOCCN(C)C(=O)COCCOCCN(C)C(=O)CC[C@@H](C(=O)O)N(C)C(=O)CCCCCCCCCCCCCCCCCc3nnn[nH]3)C(N)=O)CCOCC2)NC1=O [compound 3, MeCO-Pen(3)-N-T-7MeW-K(Ac)-Pen(3)-AEF-2Nal-THP-E-N-3Pya-Sar-K(PEG2NMePEG2NMegENMeC18Tetrazole)-CONH2]",< 0.5 nM
< 50 nM,"CC(=O)NCCCC[C@@H]1NC(=O)[C@H](Cc2c[nH]c3c(C)cccc23)NC(=O)[C@H]([C@@H](C)O)NC(=O)[C@H](CC(N)=O)NC(=O)[C@@H](NC(=O)[C@@H](CCCNC(=N)N)NC(C)=O)C(C)(C)SSC(C)(C)[C@@H](C(=O)N[C@@H](Cc2ccc(OCCN)cc2)C(=O)N[C@@H](Cc2ccc3ccccc3c2)C(=O)NC2(C(=O)N[C@@H](CCCCNC(=O)CCOCCOCCOCCOCCNC(=O)CCl)C(=O)N[C@@H](CC(N)=O)C(=O)N[C@@H](Cc3cccnc3)C(=O)N(C)CC(=O)N[C@@H](CCCCNC(=O)COCCOCCNC(=O)COCCOCCNC(=O)CC[C@H](NC(=O)CCCCCCCCCCCCCCCCC(=O)O)C(=O)O)C(N)=O)CCOCC2)NC1=O [compound 4, MeCO-r-Pen(3)-N-T-7MeW-K(Ac)-Pen(3)-AEF-2Nal-THP-K(PEG4AcCl)-N-3Pya-Sar-K(PEG2PEG2gEC18OH)-CONH2] (Ac-[dR][Pen]NT[Trp(7-Me)]K(Ac)[Pen][AEF][2Nal][Thp]K([PEG4-ClAc])N[3Pal][Sar]K([AEEA-AEEA-γGlu-C18 diacid])-NH2; disulfide 2-7)",< 0.5 nM
< 50 nM,"CCCCCCCCCCCC(=O)N[C@@H](CCC(=O)NCCOCCOCC(=O)NCCOCCOCC(=O)NC(CCCNC(=N)N)C(=O)N[C@H]1CCSC[C@@](C)(C(=O)N[C@@H](Cc2ccc(OCCN)cc2)C(=O)N[C@@H](Cc2ccc3ccccc3c2)C(=O)NC2(C(=O)N[C@@H](CCC(=O)O)C(=O)N[C@@H](CC(N)=O)C(=O)N[C@@H](Cc3cccnc3)C(=O)N(C)CC(N)=O)CCOCC2)NC(=O)[C@H](CCCCNC(C)=O)NC(=O)[C@H](Cc2c[nH]c3ccccc23)NC(=O)[C@H]([C@H](C)O)NC(=O)[C@H](CC(N)=O)NC1=O)C(=O)O (stereo partly drawn) [compound 5, C12gEPEG2PEG2CO-r-Abu(1)-N-T-W-K(Ac)-aMeC(1)-AEF-2Nal-THP-E-N-3Pya-Sar-CONH2] ({Lauroyl-γGlu-AEEA-AEEA}-[ξR][Abu(4-yl)]N[aThr]WK(Ac)[αMeC][AEF][2Nal][Thp]EN[3Pal][Sar]-NH2; thioether 2-7)",0.5 to 5 nM
< 50 nM,"CC(=O)NCCCC[C@@H]1NC(=O)[C@H](Cc2c[nH]c3c(C)cccc23)NC(=O)[C@H]([C@@H](C)O)NC(=O)[C@H](CC(N)=O)NC(=O)[C@@H](NC(C)=O)C(C)(C)SSC(C)(C)[C@@H](C(=O)N[C@@H](Cc2ccc(OCCNC(=O)COCCOCCNC(=O)COCCOCCNC(=O)CC[C@H](NC(=O)CCCCCCCCCCCCCCCCC(=O)O)C(=O)O)cc2)C(=O)N[C@@H](Cc2ccc3ccccc3c2)C(=O)NC2(C(=O)N[C@@H](CCCCNC(=O)CCC(=O)N[C@H](CC(=O)O)C[N+](C)(C)C)C(=O)N[C@@H](CC(N)=O)C(=O)N[C@@H](Cc3cccnc3)C(=O)N(C)CC(N)=O)CCOCC2)NC1=O [compound 8, MeCO-Pen(3)-N-T-7MeW-K(Ac)-Pen(3)-AEF(PEG2PEG2gEC18OH)-2Nal-THP-K(d)-N-3Pya-Sar-CONH2] (Ac-[Pen]NT[Trp(7-Me)]K(Ac)[Pen][AEF]([AEEA-AEEA-γGlu-C18 diacid])[2Nal][Thp]K([Suc-X2])N[3Pal][Sar]-NH2; disulfide 1-6)",< 0.5 nM
< 50 nM,"CC(=O)NCCCC[C@@H]1NC(=O)[C@H](Cc2c[nH]c3c(C)cccc23)NC(=O)[C@H]([C@@H](C)O)NC(=O)[C@H](CC(N)=O)NC(=O)[C@@H](NC(=O)[C@@H](CCCNC(=N)N)NC(C)=O)C(C)(C)SSC(C)(C)[C@@H](C(=O)N[C@@H](Cc2ccc(OCCNC(=O)COCCOCCNC(=O)COCCOCCNC(=O)CC[C@H](NC(=O)CCCCCCCCCCCCCCCCC(=O)O)C(=O)O)cc2)C(=O)N[C@@H](Cc2ccc3ccccc3c2)C(=O)NC2(C(=O)N[C@@H](CCCCNC(=O)CCC(=O)N[C@H](CC(=O)O)C[N+](C)(C)C)C(=O)N[C@@H](CC(N)=O)C(=O)N[C@@H](Cc3cccnc3)C(=O)N(C)CC(N)=O)CCOCC2)NC1=O [compound 9, MeCO-r-Pen(3)-N-T-7MeW-K(Ac)-Pen(3)-AEF(PEG2PEG2gEC18OH)-2Nal-THP-K(d)-N-3Pya-Sar-CONH2] (Ac-[dR][Pen]NT[Trp(7-Me)]K(Ac)[Pen][AEF]([AEEA-AEEA-γGlu-C18 diacid])[2Nal][Thp]K([Suc-X2])N[3Pal][Sar]-NH2; disulfide 2-7)",< 0.5 nM
,"Cc1cccc2c(C[C@@H]3NC(=O)[C@H]([C@@H](C)O)NC(=O)[C@H](CC(=O)N(C)C)NC(=O)[C@@H](NC(=O)CCOCCOCCOCCOCC[N+](C)(C)C)C(C)(C)SSC(C)(C)[C@@H](C(=O)N[C@@H](Cc4ccc(OCCN)cc4)C(=O)N[C@@H](Cc4ccc5ccccc5c4)C(=O)NC4(C(=O)N[C@@H](CCC(=O)O)C(=O)N[C@@H](CC(N)=O)C(=O)N[C@@H](Cc5cccnc5)C(=O)N(C)[C@@H](CCCCNC(=O)CCOCCOCCOCCOCCOCCOCCOCCOCCOCCOCCOCCOCCNC(=O)CC[C@H](NC(=O)CCCCCCCCCCCCCCCCC(=O)O)C(=O)O)C(N)=O)CCOCC4)NC(=O)[C@H](CCN(C)C(=O)CCOCCOCCOCCOCC[N+](C)(C)C)NC3=O)c[nH]c12 [compound 111, cPEG5aCO-Pen(3)-N(N(Me)2)-T-7MeW-Dab(NMecPEG5a)-Pen(3)-AEF-2Nal-THP-E-N-3Pya-NMeK(PEG12gEC18OH)-CONH2] ({Me3N+CH2CH2(OCH2CH2)4CO}-[Pen]D(NMe2)T[Trp(7-Me)][X6](Me3N+CH2CH2(OCH2CH2)4CO)[Pen][AEF][2Nal][Thp]EN[3Pal][NMeK]([PEG12-γGlu-C18 diacid])-NH2; disulfide 1-6)",< 0.5 nM
